# Columns and labels:
# VCAM-1 [1] = assay: VCAM-1 expression in human aortic endothelial cells (TNF-induced, ELISA); format: cell-based; details: for VCAM-1 expression as a percentage of VCAM-1 expression induced by TNF alone: HAEC, 2.5, 5, 10 and 100 μM, 16 h, 37 °C, FIG. 1
# Method: (§1) The cells were incubated for sixteen hours in cell culture media at 37 degrees Celsius in a tissue culture incubator. After sixteen hours, the cells were washed, and incubated with antibodies to VCAM-1. The amount of antibody binding to the cells was determined by a colorometric ELISA assay using a horseradish peroxidase conjugated antibody to the VCAM-1 antibody.
# ICAM-1 = ICAM-1 expression in human aortic endothelial cells (TNF-induced, ELISA); format: cell-based; details: HAEC; 2.5, 5, 10 and 100 μM; 16 h; FIG. 2
# Method: as §1, with “ICAM-1.” for “VCAM-1.”, “ICAM-1” for “VCAM-1”
# MCP-1 [2] = assay: MCP-1 expression in human aortic endothelial cells (TNF, ELISA); format: cell-based
# Excerpt: The cell culture media was harvested and used to quantitate the amount of MCP-1 using a color-based ELISA assay. […] MCP-1 is a chemoattractant protein that recruits monocytes to an atherosclerotic lesion.
# VCAM-1 [3] = assay: VCAM-1 gene expression in lungs of LPS-challenged mice (Northern blot); format: in vivo, mouse; details: subcutaneous time release pellets, 150 mg/kg/day
# Method: (§2) MSE administered via subcutaneous implanted pellets (150 mg/kg/day time release pellets) blocks LPS-induced gene expression of VCAM-1 and MCP-1 in lungs in a mice model.
# (§3) FIG. 4 is a Northern blot analysis of VCAM-1 and MCP-1 gene expression from RNA isolated from the lungs of LPS-challenged ApoE knockout mice. […] After one week they were challenged intraperitoneally with 1 mg/kg of LPS. After two hours the animals were sacrificed and lungs frozen for RNA isolation. The RNA was size fractionated by denaturing 1.0% agarose gel electrophoresis, transferred to a nylon membrane and hybridized with a mouse JE-specific ^32 P-labelled cDNA probe. The membrane was subsequently stripped and hybridized with a mouse VCAM-1 specific cDNA and then a chicken β-actin specific cDNA probe.
# MCP-1 [4] = assay: MCP-1 gene expression in lungs of LPS-challenged mice (Northern blot); format: in vivo, mouse; details: subcutaneous time release pellets, 150 mg/kg/day
# Method: as §2, §3
# lipid-fed rabbits = assay: Cholesterol and lipoprotein cholesterol in plasma of lipid-fed rabbits, three weeks; format: in vivo, rabbit; details: 0.5% wt/wt in high-fat chow, p<0.05, FIG. 5
# Excerpt: Control animals were fed the same chow without drug added. Lipoprotein fractions were separated from whole plasma by […] and analyzed for cholesterol content.
# [5] = Drug level in plasma of rabbits fed a high cholesterol diet for three weeks (HPLC); format: in vivo, rabbit; details: 0.5% wt/wt in high-fat chow, FIG. 6
# Excerpt: The drugs were extracted from plasma with ether and analyzed by high pressure liquid chromatography.
# NF-kB [6] = assay: NF-kB activation in TNF-treated human aortic endothelial cells (gel shift); format: cell-based; details: HAEC, 25 micromolar, 1, 2 or 4 h
# Method: Human aortic endothelial cells were treated with TNF alone or in combination with 25 micromolar MSE or PDTC for a period of either one hour, two hours or four hours. The cells were washed and the nuclear extracts were prepared to perform gel shift analysis using a VCAM-1 promoter probe.
# [7] = system: New Zealand white rabbits; assay: Cholesterol and lipoproteins in cholesterol-fed New Zealand White rabbits, six weeks; format: in vivo, rabbit
# Method: (§4) Oral administration of MSE (150 mg/kg/day) for six weeks lowers total plasma, ApO-B containing and HDL cholesterol levels in a New Zealand White rabbit model.
# (§5) After six weeks, lipoprotein fractions were separated from whole plasma by […], and analyzed for cholesterol and triglyceride content.
# aortic lesions = assay: Aortic lesions in hypercholesterolemic rabbits (sudan-4 staining); format: in vivo, rabbit; details: six weeks
# Method: as §4, §5
# (§6) The rabbits described in Example 8 were sacrificed and aortas obtained. The aortas were stained with sudan-4 and the extent of staining analyzed. FIG. 9 is a graph of the percent aortic surface area covered by lesions in MSE treated and untreated lipid-fed rabbits.
# VCAM-1 [8] = assay: VCAM-1 expression in aorta sections of hypercholesterolemic rabbits (immunostaining); format: in vivo, rabbit; details: six weeks; for reduction in VCAM-1 expression in aorta sections: immunostaining, approx. 150 mg/kg/day (probucol: similar experiment, same dose)
# Excerpt: as §5, §6
# (§7) Sections of the aortas were immunostained for VCAM-1 expression or macrophage accumulation using antibodies for VCAM-1 or Ram-11 antigen.
# [9] = system: macrophage accumulation (Ram-11 antigen); assay: Macrophage accumulation in aorta sections of hypercholesterolemic rabbits (Ram-11 immunostaining); format: in vivo, rabbit; details: six weeks; for reduction in macrophage accumulation in aorta sections: immunostaining (Ram-11), approx. 150 mg/kg/day (probucol: similar experiment, same dose)
# Excerpt: as §5, §6, §7
# [10] = system: hypercholesterolemic monkeys; assay: Serum LDL and cholesterol in hypercholesterolemic cynomolgus monkeys; format: in vivo; details: for effect on HDL: monkeys
# Method: Cynomolgus monkeys were made hypercholesterolemic prior to AGE-3 dosing by feeding a high fat cholesterol diet. The monkeys were then dosed orally with AGE-3 (100 mg/kg/day) for two weeks. The percent serum LDL cholesterol decreased in a range from 4 to 60 percent in the monkeys over this time period. Administration of the drug was then terminated, and serum cholesterol checked on day 29.
# [11] = Plasma level of MSE over days of treatment (FIG. 10); format: in vivo; details: FIG. 10, in micromolar
# apoE-knock out mice = assay: Lipoproteins in apoE-knock out mice, two weeks oral; format: in vivo, mouse; details: for effect on HDL / effect on total cholesterol and LDL: mice
# bacteria = assay: Bacterial Ames test
# Excerpt: MSE is not a mutagen in the bacterial Ames test.
# rats = assay: Two-week oral administration to rats (toxicity, clinical chemistry); format: in vivo, rat; details: 1000 mg/kg/day
# rabbits = assay: Effect on lipoproteins in rabbits (summary statement); format: in vivo, rabbit; details: for effect on HDL: rabbits (species not restated for probucol)
# Excerpt: Statins reduce LDL and may or may not effect HDL.
# C57 black mice = assay: Lipoproteins in cholesterol-fed C57 black mice, two weeks oral; format: in vivo, mouse
# VCAM-1 [12] = assay: VCAM-1 expression (general statement)
# NF-kB [13] = details: diverse signals; cited from earlier work
# VCAM-1 [14] = details: PCT/US95/05880; cited from earlier work
# VCAM-1 [15] = details: U.S. Pat. No. 5,380,747; cited from earlier work
# [16] = system: LDL receptor-deficient rabbits; details: Carew et al.; cited from earlier work
# [17] = cited from earlier work
# [18] = 0.5 wt/wt (approx. 150 mg/kg/day) in diet, FIG. 8
# [19] = oral, 150 mg/kg/day, New Zealand White rabbit
# [20] = listed as monosuccinic acid ester of probucol
compound,measurement,setting,value
"CC(C)(Sc1cc(C(C)(C)C)c(O)c(C(C)(C)C)c1)Sc1cc(C(C)(C)C)c(OC(=O)CCC(=O)O)c(C(C)(C)C)c1 [MSE, monosuccinic acid ester of probucol]",VCAM-1 expression as a percentage of VCAM-1 expression induced by TNF alone,VCAM-1 [1],inhibits the expression of VCAM-1
same,TNF-induced VCAM-1 gene expression,VCAM-1 [1]; human aortic endothelial cells,selectively inhibits
same,ICAM-1 expression as a percentage of ICAM-1 expression induced by TNF alone,ICAM-1,only a slight effect on ICAM expression which was not very concentration dependent
same,MCP-1 expression,"MCP-1 [2]; HAEC, MSE 10 μM, probucol 50 μM, TNF, 4 h, FIG. 3",inhibited the expression of MCP-1 to a greater extent than probucol itself
same,TNF-induced MCP-1 gene expression,MCP-1 [2]; human aortic endothelial cells,selectively inhibits
same,LPS-induced gene expression of VCAM-1 in lungs,VCAM-1 [3],blocks
same,LPS-induced gene expression of MCP-1 in lungs,MCP-1 [4],blocks
same,reduction in lipoprotein fractions (cholesterol),lipid-fed rabbits,statistically significant reduction in all lipoprotein fractions
same,"drug level in plasma, MSE vs probucol",[5],similar
same,effect on NF-kB activation,NF-kB [6],does not affect NF-kB activation
same,cholesterol in IDL,[7]; [18],lowered more by treatment with AGE-3 than with probucol
same,cholesterol in VLDL,[7]; [18],lowered more by treatment with AGE-3 than with probucol
same,total cholesterol,[7]; [18],lowered more by treatment with AGE-3 than with probucol
same,ApO-B containing cholesterol levels,[7]; [19],lowers
same,HDL cholesterol levels,[7]; [19],lowers
same,total plasma cholesterol,[7]; [19],lowers
same,atherosclerosis lesion formation,"aortic lesions; oral, 150 mg/kg/day",marked inhibition
same,aortic sudan-4 staining,"aortic lesions; approx. 150 mg/kg/day, FIG. 9",much less staining
same,reduction in VCAM-1 expression in aorta sections,VCAM-1 [8],more than 75%
same,VCAM-1 expression in aorta,"VCAM-1 [8]; oral, 150 mg/kg/day",marked inhibition
same,reduction in macrophage accumulation in aorta sections,[9],more than 75%
same,macrophage accumulation,"[9]; oral, 150 mg/kg/day",marked inhibition
same,serum cholesterol after termination of dosing,"[10]; day 29, after 100 mg/kg/day oral for two weeks",returned to the pretreatment level
same,"lowering of LDL, reversibility","[10]; during and after administration, FIG. 12",reversible lowering of LDL
same,effect on HDL,[10],without effecting HDL
same,"effect on total cholesterol and LDL, monkeys vs mice",[10]; monkeys compared with mice,significantly more effective at reducing both cholesterol and LDL in rabbits and monkeys than in mice
same,effect on HDL,[10]; [20],does not affect HDL
same,LDL cholesterol,"[10]; oral, two weeks",lowers
same,total plasma cholesterol,"[10]; oral, two weeks",lowers
same,plasma level of MSE as a function of days,[11],remained fairly constant
same,effect on HDL,apoE-knock out mice,without affecting HDL
same,effect on total cholesterol and LDL,apoE-knock out mice,"a minimal if any, effect"
same,effect on HDL,apoE-knock out mice; [20],does not affect HDL
same,apoB-containing lipoproteins,"apoE-knock out mice; oral, two weeks, apoE-knock out mice",selectively lowers
same,mutagenicity,bacteria,not a mutagen
same,mortality,"rats; oral, two weeks",did not result in any mortality
same,changes in liver morphology or histopathology,"rats; rat, in vivo, po",not accompanied with changes in liver morphology or histopathology
same,hematocrit values,"rats; rat, in vivo, po",no effect
same,serum LDH elevation,"rats; rat, in vivo, po",not statistically different from the untreated group
same,serum SGOT elevation,"rats; rat, in vivo, po",not statistically different from the untreated group
same,serum SGPT elevation,"rats; rat, in vivo, po",not statistically different from the untreated group
same,serum alkaline phosphatase elevation,"rats; rat, in vivo, po",not statistically different from the untreated group
same,serum electrolyte values,"rats; rat, in vivo, po",no effect
same,effect on HDL,rabbits,reduces HDL only to a small extent
same,"effect on total cholesterol and LDL, rabbits vs mice",rabbits; rabbits compared with mice,significantly more effective at reducing both cholesterol and LDL in rabbits and monkeys than in mice
same,apoB-containing lipoproteins,C57 black mice,selectively lowers
same,effect on HDL,C57 black mice,without affecting HDL
same,effect on VCAM-1 expression,VCAM-1 [12],block the induced expression of the endothelial cell surface adhesion molecule VCAM-1
same,"VCAM-1 expression, all species tested",VCAM-1 [12]; all species tested,inhibits the expression of VCAM-1 in all species tested
"S=C(S)N1CCCC1 [PDTC, pyrrolidine dithiocarbamate]",effect on NF-kB activation,NF-kB [6],does inhibit the activation of NF-kB
same,activation of NF-kB in vascular endothelial cells,NF-kB [13],specifically inhibited
same,induction of VCAM-1 by polyunsaturated fatty acids and their hydroperoxides,VCAM-1 [14],supressed
same,expression of VCAM-1 in vascular endothelial cells,VCAM-1 [15],can be inhibited
"CC(C)(Sc1cc(C(C)(C)C)c(O)c(C(C)(C)C)c1)Sc1cc(C(C)(C)C)c(O)c(C(C)(C)C)c1 [probucol, 4,4'-(isopropylidenedithio) bis(2,6-di-tert-butylphenol), reference compound]",VCAM-1 expression as a percentage of VCAM-1 expression induced by TNF alone,VCAM-1 [1],does not have an appreciable effect on VCAM
same,ICAM-1 expression as a percentage of ICAM-1 expression induced by TNF alone,ICAM-1,no effect on ICAM expression
same,reduction in lipoprotein fractions (cholesterol),lipid-fed rabbits,only HDL cholesterol
same,reduction in VCAM-1 expression in aorta sections,VCAM-1 [8],less than 25%
same,reduction in macrophage accumulation in aorta sections,[9],less than 25%
same,effect on total cholesterol and LDL,apoE-knock out mice,"a minimal if any, effect"
same,effect on HDL,rabbits,reduces HDL significantly
same,effect on LDL,rabbits; species not restated for probucol,reduces LDL only to a small extent
same,effect on VCAM-1 expression,VCAM-1 [12],does not significantly affect VCAM-1 expression
same,progression of atherosclerosis,[16],slow the progression of atherosclerosis
same,solubility in water,[17],almost insoluble in water

# — patent publication US6121319A (priority 1998, dated 2000)
